Like-named read-outs stand apart in the source and are kept apart here.
Experiments:
human Cav3.2 channels [1] = biological target: T1, human Cav3.2 channels (Homo sapiens, UniProt O95180); test: Intracellular calcium concentration measurement (Fluo-4 AM) in stable cells expressing human Cav3.2 channels, buffer A / buffer B; type: cell-based
T1 construct: expressed in transfected cells; host or cells: HEK293 cells (ATCC No. CRL-1573), plasmid pcDNA3.1(+)
Procedure, shortened: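 State-dependent Cav3.2 inhibition compared in two buffers differing in potassium equilibrium potential (−92 vs −110 mV). Stable HEK293 line, Fluo-4 dye; compound 15 min, room temperature, dark, then KCl addition (83.8 or 91.8 mM) triggers calcium influx read 10 s; IC50 from peak increment over baseline.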

human Cav3.2 channels [2] = biological target: T1, human Cav3.2 channels; test: Electrophysiological evaluation, whole-cell patch-clamp with automatic patch-clamp system; type: cell-based; settings: for inhibition at 0.3 µM: holding potential −80 mV, read-out: Cav3.2 channel current inhibition ratio at 0.3 μM of test compound (holding potential −80 mV)
Procedure: Electrophysiological Evaluation
Stable cell line expressing human Cav3.2 channels, which had been produced by Test method (1) of Example 140, was seeded in a 10-cm dish using DMEM medium containing 10% FBS, and the cells were cultured for 24 hours or longer under the conditions of 37° C. and 5% CO2. The cells were detached using Accutase and were used after being suspended in ice-cold extracellular solution. The Cav3.2 channel current was measured by the Whole-cell patch-clamp method using an automatic patch-clamp system (Port-a-Patch; Nanion Technologies GmbH, EPC-10; HEKA Elektronik GmbH, Patchmaster; HEKA Elektronik GmbH) and buffers described below. Measurement of the Cav3.2 channel current was carried out at room temperature, and the measurement conditions were set as follows: holding potential: −80 mV, depolarization potential: −20 mV, depolarization time: 100 msec, and depolarization frequency: 10 sec. The Cav3.2 channel current was defined as the peak value of the inward current observed when depolarization occurred at −20 mV.
For a test compound, a DMSO solution was diluted 1,000 times with extracellular solution, and thus a solution having an intended concentration was produced. The test compound was applied using an extracellular perfusion system (Nanion Technologies GmbH) until the Cav3.2 channel current was stabilized, and five concentrations at the maximum from the low-concentration side were cumulatively applied. The inhibition ratio of the test compound was calculated from the current value immediately before the application of the test compound and the change rate of the Cav3.2 channel current after the application of the test compound (conditions for a holding potential of −80 mV: test compound concentration of 0.3 μM, conditions for a holding potential of −100 mV: test compound concentration of 3 μM).
Extracellular solution: 135 mM NaCl, 4 mM KCl, 1 mM MgCl2, 5 mM CaCl2, 5 mM D-Glucose, and 10 mM HEPES, pH 7.4
Internal solution for electrode: 10 mM NaCl, 10 mM HEPES, 50 mM CsCl, 60 mM CsF, and 20 mM EGTA, pH 7.2

[3] = Tables 2 to 6, buffer A, equilibrium potential of potassium −92 mV, read-out: Inhibitory action of buffer A (inactivated state)
[4] = Table 1, buffer A, equilibrium potential of potassium −92 mV, read-out: Inhibitory action of buffer A (inactivated state)
[5] = Table 1, buffer B, equilibrium potential of potassium −110 mV, read-out: Inhibitory action of buffer B (resting state or closed state)

T1 sequence (O95180 whole entry): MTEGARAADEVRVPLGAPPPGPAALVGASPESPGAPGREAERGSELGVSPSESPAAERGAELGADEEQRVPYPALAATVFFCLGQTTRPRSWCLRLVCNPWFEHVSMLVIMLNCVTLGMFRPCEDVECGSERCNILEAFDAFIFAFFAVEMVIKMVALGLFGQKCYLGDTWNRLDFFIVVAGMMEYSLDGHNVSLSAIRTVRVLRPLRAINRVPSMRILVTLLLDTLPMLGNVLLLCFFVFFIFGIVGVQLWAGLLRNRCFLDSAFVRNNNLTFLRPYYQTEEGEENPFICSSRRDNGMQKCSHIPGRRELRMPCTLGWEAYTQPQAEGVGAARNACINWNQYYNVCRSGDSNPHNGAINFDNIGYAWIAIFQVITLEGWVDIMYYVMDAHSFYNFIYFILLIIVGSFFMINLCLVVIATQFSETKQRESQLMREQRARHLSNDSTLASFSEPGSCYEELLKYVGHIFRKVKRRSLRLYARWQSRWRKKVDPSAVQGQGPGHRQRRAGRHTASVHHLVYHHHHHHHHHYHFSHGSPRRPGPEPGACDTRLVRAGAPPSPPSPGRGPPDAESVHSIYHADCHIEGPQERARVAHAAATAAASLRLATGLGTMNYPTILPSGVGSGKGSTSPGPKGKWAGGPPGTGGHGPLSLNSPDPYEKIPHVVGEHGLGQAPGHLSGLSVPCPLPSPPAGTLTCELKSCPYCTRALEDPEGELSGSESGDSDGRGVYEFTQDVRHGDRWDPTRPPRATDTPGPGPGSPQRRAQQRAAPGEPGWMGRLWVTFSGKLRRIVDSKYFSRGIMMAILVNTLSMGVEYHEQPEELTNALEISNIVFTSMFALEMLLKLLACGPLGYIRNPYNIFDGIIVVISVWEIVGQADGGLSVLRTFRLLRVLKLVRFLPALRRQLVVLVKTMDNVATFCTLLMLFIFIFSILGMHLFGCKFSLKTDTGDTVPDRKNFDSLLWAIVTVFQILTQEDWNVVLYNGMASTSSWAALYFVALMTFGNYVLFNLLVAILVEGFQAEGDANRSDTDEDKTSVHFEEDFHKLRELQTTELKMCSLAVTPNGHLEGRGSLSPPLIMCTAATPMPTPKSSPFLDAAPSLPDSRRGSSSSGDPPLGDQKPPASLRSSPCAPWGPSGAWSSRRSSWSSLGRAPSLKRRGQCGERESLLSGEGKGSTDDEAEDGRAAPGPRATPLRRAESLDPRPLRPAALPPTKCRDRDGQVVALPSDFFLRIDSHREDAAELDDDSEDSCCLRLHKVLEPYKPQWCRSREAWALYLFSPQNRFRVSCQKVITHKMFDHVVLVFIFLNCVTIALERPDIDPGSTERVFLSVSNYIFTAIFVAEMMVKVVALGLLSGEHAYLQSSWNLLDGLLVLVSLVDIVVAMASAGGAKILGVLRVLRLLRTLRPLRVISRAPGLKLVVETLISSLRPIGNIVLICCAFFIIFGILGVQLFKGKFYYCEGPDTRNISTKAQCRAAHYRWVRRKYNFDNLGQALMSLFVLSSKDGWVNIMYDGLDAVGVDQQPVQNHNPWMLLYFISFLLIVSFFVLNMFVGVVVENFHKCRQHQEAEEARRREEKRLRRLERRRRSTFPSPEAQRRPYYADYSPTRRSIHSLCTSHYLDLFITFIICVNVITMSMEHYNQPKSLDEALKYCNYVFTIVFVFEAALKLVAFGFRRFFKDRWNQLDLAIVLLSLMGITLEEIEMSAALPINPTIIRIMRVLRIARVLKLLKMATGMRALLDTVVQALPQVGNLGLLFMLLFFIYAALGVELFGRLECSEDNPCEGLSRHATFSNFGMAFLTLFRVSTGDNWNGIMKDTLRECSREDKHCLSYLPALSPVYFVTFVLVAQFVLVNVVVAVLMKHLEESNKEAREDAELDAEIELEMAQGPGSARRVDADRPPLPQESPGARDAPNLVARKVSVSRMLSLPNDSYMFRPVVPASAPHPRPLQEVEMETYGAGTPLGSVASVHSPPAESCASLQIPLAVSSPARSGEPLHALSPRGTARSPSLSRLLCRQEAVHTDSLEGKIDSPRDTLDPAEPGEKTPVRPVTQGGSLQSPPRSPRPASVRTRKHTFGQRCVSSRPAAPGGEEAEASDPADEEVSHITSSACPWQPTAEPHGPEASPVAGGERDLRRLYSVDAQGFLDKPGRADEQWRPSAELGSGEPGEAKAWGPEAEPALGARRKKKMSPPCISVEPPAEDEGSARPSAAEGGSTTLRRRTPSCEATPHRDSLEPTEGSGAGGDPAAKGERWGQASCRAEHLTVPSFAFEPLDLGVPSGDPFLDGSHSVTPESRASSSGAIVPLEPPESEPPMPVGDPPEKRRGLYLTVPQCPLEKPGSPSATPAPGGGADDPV

Structure (SMILES)	IC50 (human Cav3.2 channels [1]; [3])	inhibition at 0.3 µM (human Cav3.2 channels [2])	IC50 (human Cav3.2 channels [1]; [4])	IC50 (human Cav3.2 channels [1]; [5])	Cav3.2 channel current inhibition ratio at 3 μM of test compound (holding potential −100 mV) (human Cav3.2 channels [2])
C[C@@H](NC(=O)C1CC1c1nc2ccccc2[nH]1)c1cnc(OCC(F)(F)F)s1 (single isomer, unassigned) [Example 8A]	–	1%	100 to 1000 nM	> 10000 nM	13%
C[C@@H](NC(=O)[C@@H]1CCN(CC(=O)Nc2ccccc2)C1)c1ccc(OCC(F)(F)F)s1.Cl [Example 17, hydrochloride]	–	64%	100 to 1000 nM	1000 to 10000 nM	–
C[C@@H](NC(=O)[C@H]1C[C@@H]1c1nc2ccccc2[nH]1)c1ccc(C(=O)OC(C)(C)C)s1 [Example 25A, Trans-5-((1R)-1-(2-(1H-benzo[d]imidazol-2-yl)cyclopropane-1-carboxamido)ethyl)thiophene-2-carboxylic acid tert-butyl ester]	100 to 1000 nM	59%	–	–	54%
CC(C)[C@@H](NC(=O)[C@H]1C[C@@H]1c1nc2ccccc2[nH]1)c1ccc(C(F)(F)F)s1 [Example 50, (1S,2S)-2-(1H-benzo[d]imidazol-2-yl)-N—((R)-2-methyl-1-(5-(trifluoromethyl)thiophen-2-yl)propyl)cyclopropane-1-carboxamide]	100 to 1000 nM	43%	–	–	–
Cc1nc(OCC(F)(F)F)sc1[C@@H](C)NC(=O)[C@H]1C[C@@H]1c1nc2ccccc2[nH]1 [Example 51, (1S,2S)-2-(1H-benzo[d]imidazol-2-yl)-N—((R)-1-(4-methyl-2-(2,2,2-trifluoroethoxy)thiazol-5-yl)ethyl)cyclopropane-1-carboxamide]	100 to 1000 nM	33%	–	–	–
C[C@@H](NC(=O)[C@H]1C[C@@H]1c1nc2ccccc2[nH]1)c1ccc2ccccc2n1 [Example 52, (1S,2S)-2-(1H-benzo[d]imidazol-2-yl)-N—((R)-1-(quinolin-2-yl)ethyl)cyclopropane-1-carboxamide]	100 to 1000 nM	36%	–	–	–
C[C@@H](NC(=O)[C@H]1C[C@@H]1c1nc2ccccc2[nH]1)c1ccc(C(=O)N(C)c2ccc(F)cc2)s1 [Example 62, Trans-5-((1R)-1-(2-(1H-benzo[d]imidazol-2-yl)cyclopropane-1-carboxamido)ethyl)-N-(4-fluorophenyl)-N-methylthiophene-2-carboxamide]	100 to 1000 nM	34%	–	–	–
C[C@@H](NC(=O)[C@H]1C[C@@H]1c1nc2ccccc2[nH]1)c1ccc2c(c1)OC(F)(F)O2 [Example 73, (1S,2S)-2-(1H-benzo[d]imidazol-2-yl)-N—((R)-1-(2,2-difluorobenzo[d][1,3]dioxol-5-yl)ethyl)cyclopropane-1-carboxamide]	100 to 1000 nM	50%	–	–	–
C[C@@H](NC(=O)[C@H]1C[C@@H]1c1nc2ccccc2[nH]1)c1cc2ccccc2o1 [Example 76, (1S,2S)-2-(1H-benzo[d]imidazol-2-yl)-N—((R)-1-(benzofuran-2-yl)ethyl)cyclopropane-1-carboxamide]	100 to 1000 nM	49%	–	–	–
C[C@@H](NC(=O)[C@H]1C[C@@H]1c1nc2ccccc2[nH]1)c1ccc2c(c1)CCO2 [Example 78, (1S,2S)-2-(1H-benzo[d]imidazol-2-yl)-N—((R)-1-(2,3-dihydrobenzofuran-5-yl)ethyl)cyclopropane-1-carboxamide]	100 to 1000 nM	49%	–	–	–
C[C@@H](NC(=O)[C@H]1C[C@@H]1c1nc2ccccc2[nH]1)c1cc2ccccn2n1 [Example 93, (1S,2S)-2-(1H-benzo[d]imidazol-2-yl)-N—((R)-1-(pyrazolo[1,5-a]pyridin-2-yl)ethyl)cyclopropane-1-carboxamide]	1000 to 10000 nM	22%	–	–	–
CC(C)[C@@H](NC(=O)[C@H]1C[C@@H]1c1nc2ccccc2[nH]1)c1cc2ccc(F)cc2s1 [Example 120, (1S,2S)-2-(1H-benzo[d]imidazol-2-yl)-N—((R)-1-(6-fluorobenzo[b]thiophen-2-yl)-2-methylpropyl)cyclopropane-1-carboxamide]	100 to 1000 nM	–	–	–	–
C[C@@H](NC(=O)[C@@H]1CCN(c2ccc(C(F)(F)F)cn2)C1)c1cc2cc(F)ccc2o1 [Example 121, (R)—N—((R)-1-(5-fluorobenzofuran-2-yl)ethyl)-1-(5-(trifluoromethyl)pyridin-2-yl)pyrrolidine-3-carboxamide]	> 10000 nM	–	–	–	–
C[C@@H](NC(=O)[C@@H]1CCN(c2nc3ccccc3s2)C1)c1cc2cc(F)ccc2o1 [Example 126, (R)-1-(benzo[d]thiazol-2-yl)-N—((R)-1-(5-fluorobenzofuran-2-yl)ethyl)pyrrolidine-3-carboxamide]	100 to 1000 nM	–	–	–	–
O=C(NC1(c2cc3cc(F)ccc3o2)CC1)[C@H]1C[C@@H]1c1nc2ccccc2[nH]1 [Example 128, (1S,2S)-2-(1H-benzo[d]imidazol-2-yl)-N-(1-(5-fluorobenzofuran-2-yl)cyclopropyl)cyclopropane-1-carboxamide]	100 to 1000 nM	–	–	–	–
C[C@@H](NC(=O)C1CC1c1nc2ccccc2[nH]1)c1cnc(OCC(F)(F)F)cn1 (stereo partly shown) [RQ-00311651, reference compound]	–	17%	–	–	14%

Now from value to compound:

IC50 (human Cav3.2 channels [1]; [3])	inhibition at 0.3 µM (human Cav3.2 channels [2])	IC50 (human Cav3.2 channels [1]; [4])	IC50 (human Cav3.2 channels [1]; [5])	Cav3.2 channel current inhibition ratio at 3 μM of test compound (holding potential −100 mV) (human Cav3.2 channels [2])	Structure (SMILES)
100 to 1000 nM	50%	–	–	–	C[C@@H](NC(=O)C1CC1c1nc(-c2ccccn2)c[nH]1)c1ccc(OCC(F)(F)F)s1 (mixture of isomers) [Example 39, Trans-2-(4-(pyridin-2-yl)-1H-imidazol-2-yl)-N—((R)-1-(5-(2,2,2-trifluoroethoxy)thiophen-2-yl)ethyl)cyclopropane-1-carboxamide]
100 to 1000 nM	58%	–	–	–	C[C@@H](NC(=O)C1CC1c1ccc2ccccc2n1)c1ccc(OCC(F)(F)F)s1 (single isomer, unassigned) [Example 34A]
≤ 100 nM	35%	–	–	–	C[C@@H](NC(=O)C1CC1c1c[nH]c2ccccc12)c1cnc(OCC(F)(F)F)s1 (single isomer, unassigned) [Example 49]
100 to 1000 nM	70%	–	–	–	C[C@@H](NC(=O)C1CC1c1ncc2ccccn12)c1cc2cc(F)ccc2o1 (single isomer, unassigned) [Example 117A]
≤ 100 nM	81%	–	–	–	C[C@@H](NC(=O)[C@H]1C[C@@H]1c1nc2ccccc2[nH]1)c1cc2cc(F)ccc2s1 [Example 66, (1S,2S)-2-(1H-benzo[d]imidazol-2-yl)-N—((R)-1-(5-fluorobenzo[b]thiophen-2-yl)ethyl)cyclopropane-1-carboxamide]
≤ 100 nM	88%	–	–	–	C[C@@H](NC(=O)[C@H]1C[C@@H]1c1nc2ccccc2[nH]1)c1cc2cc(Cl)ccc2o1 [Example 82, (1S,2S)-2-(1H-benzo[d]imidazol-2-yl)-N—((R)-1-(5-chlorobenzofuran-2-yl)ethyl)cyclopropane-1-carboxamide]
≤ 100 nM	37%	–	–	–	C[C@@H](NC(=O)[C@H]1C[C@@H]1c1nc2ccccc2[nH]1)c1cc2cc(F)cc(F)c2o1 [Example 88, (1S,2S)-2-(1H-benzo[d]imidazol-2-yl)-N—((R)-1-(5,7-difluorobenzofuran-2-yl)ethyl)cyclopropane-1-carboxamide]
≤ 100 nM	73%	–	–	–	Cc1c([C@@H](C)NC(=O)[C@H]2C[C@@H]2c2nc3ccccc3[nH]2)oc2ccc(F)cc12 [Example 101, (1S,2S)-2-(1H-benzo[d]imidazol-2-yl)-N—((R)-1-(5-fluoro-3-methylbenzofuran-2-yl)ethyl)cyclopropane-1-carboxamide]
≤ 100 nM	74%	–	–	–	CCn1c([C@H]2C[C@@H]2C(=O)N[C@H](C)c2cc3cc(F)ccc3o2)nc2ccccc21 [Example 102, (1S,2S)-2-(1-ethyl-1H-benzo[d]imidazol-2-yl)-N—((R)-1-(5-fluorobenzofuran-2-yl)ethyl)cyclopropane-1-carboxamide]
≤ 100 nM	52%	–	–	–	CC(NC(=O)[C@H]1C[C@@H]1c1nc2ccccc2[nH]1)c1nc2cc(F)ccc2s1 (stereo partly drawn) [Example 104, (1S,2S)-2-(1H-benzo[d]imidazol-2-yl)-N-(1-(5-fluorobenzo[d]thiazol-2-yl)ethyl)cyclopropane-1-carboxamide]

From patent US11420944B2, “Voltage-dependent t-type calcium channel blocker” (Nippon Chemiphar Co., Ltd., priority 2016, dated 2022)
